From patent US9365489B2, “Nitrooxy alkanoic acids and derivatives thereof in feed for reducing methane emission in ruminants, and/or to improve ruminant performance” (priority 2009, dated 2016)
Marks after values point to notes of the source that are not given here.

Key:
[1] = test system: protozoa (18SrRNA); assay: In vivo test: qPCR of total protozoa in rumen contents; details: rumen of sheep; for Total protozoa concentration: control 2.38 × 10^6; for Total protozoa, log10: control 6.35
Description: (§1) The experimental design consisted of a cross-over design with 2 sheep per treatment in each period. The trial consisted in 3 consecutive periods of: 14 days of adaptation to the dose plus three consecutive days of methane measurements in chambers. This 14 days adaptation phase was established as the period necessary for wash out between different doses assayed in consecutive periods. During the last two days of methane measurements in chambers rumen contents samples were collected two hours after the morning feeding, sub sampled and immediately frozen prior DNA extraction and determination of volatile fatty acids and ammonia nitrogen concentration. Experimental animals were randomly allocated in three sub-groups of 2 animals and were assigned one of the three treatments (control, dose 1 and dose 2). The 3 sub-groups started the adaptation period with a gap of three days so they had the same number of adaptation days prior to methane measurement in the chambers. Each animal was held in cages with constant access to fresh water. The diet provided to the animals consisted of alfalfa hay chopped at 15 to 20 cm and concentrate in a proportion 1:1 at approximately 1.1 times the energy requirements maintenance level (Prieto et al, 1990) plus mineral-vitamin supplement. Fresh matter intake was monitored daily for each animal throughout the trial. The diet was provided to animals in two equal meals at 9.00 h and 14.00 h.
(§2) Samples of rumen contents were freeze-dried and thoroughly mixed by physical disruption using a bead beater (Mini-bead Beater; BioSpec Products, Bartlesville, Okla., USA) before DNA extraction, which was performed from approximately 50 mg sample using the QIAamp® DNA Stool Mini Kit (Qiagen Ltd, West Sussex, UK) following the manufacturer's instructions with the modification that a higher temperature (95° C.) was used for lysis incubation. DNA samples were used as templates for quantitative real-time PCR (qPCR) amplification. The numbers of total bacteria, total protozoa and total methanogenic archaea were quantified by Real Time—PCR (qPCR).
(§3) Different primer sets were used to amplify 16S rRNA gene-targeted total bacteria (Maeda et al. FEMS Inmunology and Medical Microbiology 39, 81-86, 2003), and protozoa (Sylvester et al. Journal Dairy Science. 88, 2083-2095 2005). […] The amplification efficiency was evaluated for each pair of primers with the following program: 5 min cycle at 95° C., 40 cycles at 95° C. for 15 s, 60° C. for 30 s, 72° C. for 55 s and, 75° C. during 6 s for fluorescent emission measures. The melting curve was built by increasing temperature from 55° C. to 95° C. and reading were taken every 5° C. […] The absolute amount of bacteria, protozoa and methanogenic archaea expressed as the number of DNA copies, was determined by using standards. […]

[2] = test system: total bacteria (16SrRNA); assay: In vivo test: qPCR of total bacteria in rumen contents; details: rumen of sheep; for Total bacteria concentration: control 1.19 × 10^9; for Total bacteria, log10: control 9.03
Description: as §1, §2, §3

[3] = test system: methanogenic archaea; assay: In vivo test: qPCR of methanogenic archaea in rumen contents; details: rumen of sheep; for Methanogenic archaea, log10: control 3.59; for Methanogenic archaea concentration: control 5.60 × 10^3
Description: as §1, §2, §3

[4] = test system: methane emissions by sheep; assay: In vivo test for methane inhibition: methane emissions in chambers; details: for CH4, l/kg BW / CH4, l/day / CH4, l/kg DMI: average of 3 consecutive days; for CH4, l/kg BW: control 0.59; for CH4, l/day: control 25.5; for CH4, l/kg DMI: control 31.5; for reduction of methane emissions: vs control
Description: as §1
The additive was provided twice a day through the ruminal cannula at the same time as the diet. The corresponding amount to each dose was added into 10 grams of grounded concentrate and wrapped in cellulose paper immediately before it was placed in the rumen. In order to avoid the volatility of the active molecule, both additives were kept in a cold room at 4° C. where the daily process of dispensing it in the cellulose bags was carried out.
The doses were 50 (dose 1) and 500 (dose 2) mg/animal per day. The higher dose was reached after 3 days of gradual increases (50, 200 and 500 mg), so the whole adaptation period was consequently extended for 3 more days.
On day 14 animals were introduced in the chambers for methane measurements for 3 consecutive days. Each chamber measured 1.8 m wide×1.8 m deep×1.5 m tall. Chamber air temperature was maintained between 15 and 20° C. Within each chamber, the animals were individually restrained in the same cages as in the adaptation period. Interruptions occurred daily at 8.30 h, when the chamber floor was cleaned, and the animals were fed. These interruptions had little impact on the daily emissions because fluxes were calculated three times per day and then averaged to derive the 23-hour emission value. Airflow and concentration of methane was measured for the intake and exhaust ducts of each chamber. Air velocity was continuously monitored over the day in each intake and exhaust duct for each chamber. The air stream in each of the 3 ducts (chamber 1, chamber 2 and background) was sub-sampled, and methane concentration was measured continuously using a gas analyzer ADM MGA3000 (Spurling works, Herts, UK). It took 8 min. to sequentially sample the airflow in all intake and exhaust ducts in both chambers (3 min. in chambers 1 and 2, 2 min for background). In summary, the flux of methane for each chamber was calculated for each of the 3-day periods of measurement from the difference of fresh-air input and chamber exhaust methane concentrations and mean air velocities.
Individual methane emissions, VFA profiles, ratio of acetate to propionate, ammonia N concentration, and log10 transformations of concentration of total bacteria, total protozoa and methanogenic archaea were analyzed for the following effects: additive dose, day of measurement, and their interaction using a repeated measures analysis of variance under the cross-over design arrangement of the experiment. The standard error of the mean (SEM) was computed for each analysis. […]

With `CCOC(=O)CCO[N+](=O)[O-]` [Ethyl-3-nitrooxy propionate] the Total protozoa concentration ([1]; Dose 1 (50 mg/animal per day)) was 2.08 × 10^6 copy gene numbers/g fresh matter, the “Total protozoa, log10” value ([1]; Dose 1 (50 mg/animal per day)) was 6.28 log10 and the Total protozoa concentration ([1]; Dose 2 (500 mg/animal per day)) was 2.77 × 10^6 copy gene numbers/g fresh matter. The “Total protozoa, log10” value ([1]; Dose 2 (500 mg/animal per day)) was 6.43 log10, the Total bacteria concentration ([2]; Dose 1 (50 mg/animal per day)) was 1.43 × 10^9 copy gene numbers/g fresh matter and the “Total bacteria, log10” value ([2]; Dose 1 (50 mg/animal per day)) was 9.08 log10. For the same molecule, the Total bacteria concentration ([2]; Dose 2 (500 mg/animal per day)) was 1.63 × 10^9 copy gene numbers/g fresh matter, the “Total bacteria, log10” value ([2]; Dose 2 (500 mg/animal per day)) was 9.18 log10 and the “Methanogenic archaea, log10” value ([3]; Dose 1 (50 mg/animal per day)) was 3.57 log10. For the same molecule, the Methanogenic archaea concentration ([3]; Dose 1 (50 mg/animal per day)) was 5.43 × 10^3 copy gene numbers/g fresh matter, the “Methanogenic archaea, log10” value ([3]; Dose 2 (500 mg/animal per day)) was 3.45 log10 and the Methanogenic archaea concentration ([3]; Dose 2 (500 mg/animal per day)) was 4.34 × 10^3 copy gene numbers/g fresh matter. For the same molecule, the “CH4, l/kg BW” value ([4]; Dose 1 (50 mg/animal per day)) was 0.51^ab l/kg BW, the “CH4, l/day” value ([4]; Dose 1 (50 mg/animal per day)) was 22.3^ab l/day and the “CH4, l/kg DMI” value ([4]; Dose 1 (50 mg/animal per day)) was 26.0^ab l/kg DMI. The “CH4, l/kg BW” value ([4]; Dose 2 (500 mg/animal per day)) was 0.42^b l/kg BW, the “CH4, l/day” value ([4]; Dose 2 (500 mg/animal per day)) was 18^b l/day and the “CH4, l/kg DMI” value ([4]; Dose 2 (500 mg/animal per day)) was 22.2^b l/kg DMI. For the same molecule, the “reduction of methane emissions” value ([4]; dose 1 (50 mg/animal per day)) was 18%, the “reduction of methane emissions” value ([4]; dose 2 (500 mg/animal per day), P<0.05) was 29% and the “inhibition of methanogenesis (conclusion in words)” value ([4]; sheep, 50 and 500 mg/animal per day) was “strong inhibitor of methanogenesis”.
